# Assay results reported in patent US20080234262A1 (Wyeth, priority 2007, published 2008).
# How the values were obtained:
# [1] = target: PI3K (Homo sapiens, UniProt P42336); experiment: Fluorescence polarization assay for PI3K; format: biochemical; settings: PI3Kα; read-out: PI3Kα IC50;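 also: PI3K kinase reaction on PIP2 with ATP, 30-60 min, product sensed by GST-GRP with red probe in fluorescence polarization (mP), controls without enzyme and at zero time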
# [2] = test system: prostate line LNCap; experiment: In vitro cell culture growth assay (MTS), LNCap; format: cell-based, human; settings: Homo sapiens, LNCaP, 72 h, LNCap cells, three days after drug treatment;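 also: viable cell density read by absorbance at 490 nm, growth expressed as percent of vehicle-treated cells on the same plate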
# [3] = test system: breast line MDA468; experiment: In vitro cell culture growth assay (MTS), MDA468; format: cell-based, human; settings: Homo sapiens, 72 h, MDA468 cells, three days after drug treatment
# Method in brief: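 Growth measured as percent of same-plate vehicle control by MTS metabolic dye conversion (A490). Breast MDA468 and prostate LNCap cells, plated a day ahead, were exposed to compounds for 3 days.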
# Chain of PI3K (P42336 whole entry): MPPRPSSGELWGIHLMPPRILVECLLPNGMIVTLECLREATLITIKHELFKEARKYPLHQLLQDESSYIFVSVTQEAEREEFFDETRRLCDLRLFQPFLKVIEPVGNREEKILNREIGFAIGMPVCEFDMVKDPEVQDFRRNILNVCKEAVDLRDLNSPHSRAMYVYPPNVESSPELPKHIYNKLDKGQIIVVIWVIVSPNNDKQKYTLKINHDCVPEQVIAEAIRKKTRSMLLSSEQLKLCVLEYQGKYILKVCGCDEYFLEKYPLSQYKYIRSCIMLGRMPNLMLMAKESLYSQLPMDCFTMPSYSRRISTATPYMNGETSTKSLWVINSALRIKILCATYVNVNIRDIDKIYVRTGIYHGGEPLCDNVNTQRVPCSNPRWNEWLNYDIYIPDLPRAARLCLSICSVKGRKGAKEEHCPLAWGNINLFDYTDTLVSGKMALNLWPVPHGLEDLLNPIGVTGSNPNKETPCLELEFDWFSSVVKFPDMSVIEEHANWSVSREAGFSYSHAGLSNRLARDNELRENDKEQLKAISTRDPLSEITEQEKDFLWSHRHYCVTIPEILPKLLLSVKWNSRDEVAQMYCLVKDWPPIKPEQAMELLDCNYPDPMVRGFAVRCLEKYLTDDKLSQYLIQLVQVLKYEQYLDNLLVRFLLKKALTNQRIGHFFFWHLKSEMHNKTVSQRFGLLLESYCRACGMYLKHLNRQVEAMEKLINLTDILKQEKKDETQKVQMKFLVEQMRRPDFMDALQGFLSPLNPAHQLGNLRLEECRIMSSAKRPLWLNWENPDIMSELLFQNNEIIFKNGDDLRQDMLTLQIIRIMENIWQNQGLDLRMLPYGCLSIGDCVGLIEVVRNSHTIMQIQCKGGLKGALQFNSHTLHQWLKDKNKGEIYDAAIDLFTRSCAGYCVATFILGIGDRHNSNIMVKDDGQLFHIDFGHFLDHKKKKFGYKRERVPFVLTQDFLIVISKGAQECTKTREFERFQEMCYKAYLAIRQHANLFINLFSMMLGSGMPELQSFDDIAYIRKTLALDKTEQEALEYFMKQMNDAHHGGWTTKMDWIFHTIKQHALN
# Chain of PI3K (P27986 whole entry partner): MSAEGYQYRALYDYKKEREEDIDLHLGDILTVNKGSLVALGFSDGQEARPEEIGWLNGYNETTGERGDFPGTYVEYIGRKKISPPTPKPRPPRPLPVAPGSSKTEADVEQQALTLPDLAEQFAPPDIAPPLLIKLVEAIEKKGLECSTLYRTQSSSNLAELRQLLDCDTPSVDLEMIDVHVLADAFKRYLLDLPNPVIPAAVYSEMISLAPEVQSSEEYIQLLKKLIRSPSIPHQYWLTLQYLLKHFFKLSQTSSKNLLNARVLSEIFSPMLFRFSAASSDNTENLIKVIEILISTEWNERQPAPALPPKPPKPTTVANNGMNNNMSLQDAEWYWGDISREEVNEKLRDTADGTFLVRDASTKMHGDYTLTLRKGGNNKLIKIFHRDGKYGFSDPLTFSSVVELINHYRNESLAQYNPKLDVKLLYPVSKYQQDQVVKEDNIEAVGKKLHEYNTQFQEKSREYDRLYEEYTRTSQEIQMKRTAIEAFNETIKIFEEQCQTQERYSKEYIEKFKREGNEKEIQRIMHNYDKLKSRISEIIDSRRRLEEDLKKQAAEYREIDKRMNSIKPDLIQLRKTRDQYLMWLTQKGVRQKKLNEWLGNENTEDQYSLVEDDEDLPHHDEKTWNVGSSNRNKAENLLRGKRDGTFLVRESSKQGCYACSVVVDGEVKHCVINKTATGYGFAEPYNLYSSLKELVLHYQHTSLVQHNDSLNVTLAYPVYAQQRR
SMILES,IC50 [1] [nM],IC50 [2] [nM],IC50 [3] [nM]
"CONC(=O)Nc1ccc(-c2nc(N3CCOCC3)c3cnn(-c4ccccc4)c3n2)cc1 [Compound 541, 1-methoxy-3-[4-(4-morpholin-4-yl-1-phenyl-1H-pyrazolo[3,4-d]pyrimidin-6-yl)phenyl]urea]",404,1800,5000
"C=CCONC(=O)Nc1ccc(-c2nc(N3CCOCC3)c3cnn(-c4ccccc4)c3n2)cc1 [Compound 542, 1-(allyloxy)-3-[4-(4-morpholin-4-yl-1-phenyl-1H-pyrazolo[3,4-d]pyrimidin-6-yl)phenyl]urea]",896,3000,60000
"CNCCNC(=O)Nc1ccc(-c2nc(N3CCOCC3)c3cnn(C4CCN(Cc5ccccc5)CC4)c3n2)cc1 [Compound 545, 1-{4-[1-(1-benzylpiperidin-4-yl)-4-morpholin-4-yl-1H-pyrazolo[3,4-d]pyrimidin-6-yl]phenyl}-3-[2-(methylamino)ethyl]urea]",13,200,150
"NNC(=O)Nc1ccc(-c2nc(N3CCOCC3)c3cnn(C4CCN(Cc5ccccc5)CC4)c3n2)cc1 [Compound 554, N-{4-[1-(1-benzylpiperidin-4-yl)-4-morpholin-4-yl-1H-pyrazolo[3,4-d]pyrimidin-6-yl]phenyl}hydrazinecarboxamide]",155,900,7500
"O=C(NO)Nc1ccc(-c2nc(N3CCOCC3)c3cnn(C4CCN(Cc5ccccc5)CC4)c3n2)cc1 [Compound 555, 1-{4-[1-(1-benzylpiperidin-4-yl)-4-morpholin-4-yl-1H-pyrazolo[3,4-d]pyrimidin-6-yl]phenyl}-3-hydroxyurea]",198,100,1100
"C#CCNC(=O)Nc1ccc(-c2nc(N3CCOCC3)c3cnn(C4CCN(Cc5ccccc5)CC4)c3n2)cc1 [Compound 557, 1-{4-[1-(1-benzylpiperidin-4-yl)-4-morpholin-4-yl-1H-pyrazolo[3,4-d]pyrimidin-6-yl]phenyl}-3-prop-2-yn-1-ylurea]",173,400,3900
"O=C(Nc1ccc(-c2nc(N3CCOCC3)c3cnn(C4CCN(Cc5cccnc5)CC4)c3n2)cc1)Nc1cccnc1 [Compound 559, 1-(4-{4-morpholin-4-yl-1-[1-(pyridin-3-ylmethyl)piperidin-4-yl]-1H-pyrazolo[3,4-d]pyrimidin-6-yl}phenyl)-3-pyridin-3-ylurea]",20,< 27,< 27
"O=C(NCCF)Nc1ccc(-c2nc(N3CCOCC3)c3cnn(C4CCN(Cc5cccnc5)CC4)c3n2)cc1 [Compound 560, 1-(2-fluoroethyl)-3-(4-{4-morpholin-4-yl-1-[1-(pyridin-3-ylmethyl)piperidin-4-yl]-1H-pyrazolo[3,4-d]pyrimidin-6-yl}phenyl)urea]",338,< 27,27

# Second part, led by results:
IC50 [1] [nM],IC50 [2] [nM],SMILES,IC50 [3] [nM]
178,3000,"NC(=O)Nc1ccc(-c2nc(N3CCOCC3)c3cnn(C4CCN(C(=O)c5cccnc5)CC4)c3n2)cc1 [Compound 546, 1-(4-{4-morpholin-4-yl-1-[1-(pyridin-3-ylcarbonyl)piperidin-4-yl]-1H-pyrazolo[3,4-d]pyrimidin-6-yl}phenyl)urea]",1800
32,200,"O=C(Nc1ccc(-c2nc(N3CCOCC3)c3cnn(C4CCN(C(=O)c5cccnc5)CC4)c3n2)cc1)Nc1cccnc1 [Compound 547, 1-(4-{4-morpholin-4-yl-1-[1-(pyridin-3-ylcarbonyl)piperidin-4-yl]-1H-pyrazolo[3,4-d]pyrimidin-6-yl}phenyl)-3-pyridin-3-ylurea]",27
541,630,"O=C(NCCF)Nc1ccc(-c2nc(N3CCOCC3)c3cnn(C4CCN(C(=O)c5cccnc5)CC4)c3n2)cc1 [Compound 548, 1-(2-fluoroethyl)-3-(4-{4-morpholin-4-yl-1-[1-(pyridin-3-ylcarbonyl)piperidin-4-yl]-1H-pyrazolo[3,4-d]pyrimidin-6-yl}phenyl)urea]",520
220,7500,"O=C(NCCO)Nc1ccc(-c2nc(N3CCOCC3)c3cnn(C4CCN(C(=O)c5cccnc5)CC4)c3n2)cc1 [Compound 549, 1-(2-hydroxyethyl)-3-(4-{4-morpholin-4-yl-1-[1-(pyridin-3-ylcarbonyl)piperidin-4-yl]-1H-pyrazolo[3,4-d]pyrimidin-6-yl}phenyl)urea]",9000
604,10100,"O=C(NO)Nc1ccc(-c2nc(N3CCOCC3)c3cnn(C4CCN(C(=O)c5cccnc5)CC4)c3n2)cc1 [Compound 550, 1-hydroxy-3-(4-{4-morpholin-4-yl-1-[1-(pyridin-3-ylcarbonyl)piperidin-4-yl]-1H-pyrazolo[3,4-d]pyrimidin-6-yl}phenyl)urea]",7200
398,10000,"NNC(=O)Nc1ccc(-c2nc(N3CCOCC3)c3cnn(C4CCN(C(=O)c5cccnc5)CC4)c3n2)cc1 [Compound 551, N-(4-{4-morpholin-4-yl-1-[1-(pyridin-3-ylcarbonyl)piperidin-4-yl]-1H-pyrazolo[3,4-d]pyrimidin-6-yl}phenyl)hydrazinecarboxamide]",14000
434,60,"CCNC(=O)Nc1ccc(-c2nc(N3CCOCC3)c3cnn(C4CCN(C(=O)c5cccnc5)CC4)c3n2)cc1 [Compound 552, 1-ethyl-3-(4-{4-morpholin-4-yl-1-[1-(pyridin-3-ylcarbonyl)piperidin-4-yl]-1H-pyrazolo[3,4-d]pyrimidin-6-yl}phenyl)urea]",180
1810,800,"CONC(=O)Nc1ccc(-c2nc(N3CCOCC3)c3cnn(C4CCN(C(=O)c5cccnc5)CC4)c3n2)cc1 [Compound 553, 1-methoxy-3-(4-{4-morpholin-4-yl-1-[1-(pyridin-3-ylcarbonyl)piperidin-4-yl]-1H-pyrazolo[3,4-d]pyrimidin-6-yl}phenyl)urea]",3000
82,200,"NC(=O)Nc1ccc(-c2nc(N3CCOCC3)c3cnn(C4CCN(Cc5cccnc5)CC4)c3n2)cc1 [Compound 558, 1-(4-{4-morpholin-4-yl-1-[1-(pyridin-3-ylmethyl)piperidin-4-yl]-1H-pyrazolo[3,4-d]pyrimidin-6-yl}phenyl)urea]",200
162,500,"O=C(NCCO)Nc1ccc(-c2nc(N3CCOCC3)c3cnn(C4CCN(Cc5cccnc5)CC4)c3n2)cc1 [Compound 561, 1-(2-hydroxyethyl)-3-(4-{4-morpholin-4-yl-1-[1-(pyridin-3-ylmethyl)piperidin-4-yl]-1H-pyrazolo[3,4-d]pyrimidin-6-yl}phenyl)urea]",600
259,1100,"O=C(NO)Nc1ccc(-c2nc(N3CCOCC3)c3cnn(C4CCN(Cc5cccnc5)CC4)c3n2)cc1 [Compound 562, 1-hydroxy-3-(4-{4-morpholin-4-yl-1-[1-(pyridin-3-ylmethyl)piperidin-4-yl]-1H-pyrazolo[3,4-d]pyrimidin-6-yl}phenyl)urea]",1500
187,< 27,"CCNC(=O)Nc1ccc(-c2nc(N3CCOCC3)c3cnn(C4CCN(Cc5cccnc5)CC4)c3n2)cc1 [Compound 563, 1-ethyl-3-(4-{4-morpholin-4-yl-1-[1-(pyridin-3-ylmethyl)piperidin-4-yl]-1H-pyrazolo[3,4-d]pyrimidin-6-yl}phenyl)urea]",27
